Legend:
Prothrombin = Prothrombin (Homo sapiens, UniProt P00734); test: Binding affinity against thrombin
[1] = biological target: Prothrombin (Rattus norvegicus) (UniProt P18292)
Description: Compound was tested for the antithrombic effect in rat arterial thrombosis model and expressed as activated partial thromboplastin time(PTT)

[2] = biological target: Prothrombin (Rattus norvegicus) (UniProt P18292); remark: listed apart in the source
Description: Compound was tested for the antithrombic effect in rat arterial thrombosis model and expressed as mean occlusion time(MOT)

[3] = biological target: Prothrombin (Rattus norvegicus) (UniProt P18292); remark: listed apart in the source
Description: Compound was tested for the antithrombic effect in rat arterial thrombosis model and expressed as thrombin time(TT)
Wherever APTT is given: test concentration or dose not given here.
Wherever TT is given: test concentration or dose not given here.

Ki (Prothrombin) [nM] | Structure (SMILES) | APTT [1] [s] | MOT [2] [min] | TT [3] [s]
0.106 | N=C(N)NCCCC(NC(=O)[C@@H]1CC[C@H]2CN(C(=O)CCc3ccc(Cl)c(Cl)c3)CC(=O)N21)C(=O)c1nccs1 (some centres undefined) |  |  | 
0.92 | N=C(N)NCCCC(NC(=O)[C@@H]1CC[C@H]2CN(C(=O)CCc3ccccc3F)CC(=O)N21)C(=O)c1nccs1 (some centres undefined) |  |  | 
84 | N=C(N)NCCCC(NC(=O)[C@@H]1CC[C@H]2CN(C(=O)[C@@H](O)c3ccccc3)CC(=O)N21)C(=O)c1nccs1 (stereo in doubt; 28) |  |  | 
0.5 | COc1ccc(CCC(=O)N2CC(=O)N3[C@@H](CC[C@H]3C(=O)NC(CCCN=C(N)N)C(=O)c3nccs3)C2)cc1 (some centres undefined) | 55.2 | > 60 | 633
58 | N=C(N)NCCCC(NC(=O)[C@@H]1CC[C@H]2CN(C(=O)NCc3ccccc3)CC(=O)N21)C(=O)c1nccs1 (some centres undefined) |  |  | 
0.35 | N=C(N)NCCCC(NC(=O)[C@@H]1CC[C@H]2CN(C(=O)CCc3cccc4ccccc34)CC(=O)N21)C(=O)c1nccs1 (some centres undefined) | 217 | 33.2 | > 600
16 | N=C(N)NCCCC(NC(=O)[C@@H]1CC[C@H]2CN(C(=O)[C@@H](O)c3ccccc3)CC(=O)N21)C(=O)c1nccs1 (stereo in doubt; 29) [listing 1 of 2 here] |  |  | 
3 | NC(N)=NCCCC(NC(=O)[C@@H]1CC[C@H]2CN(C(=O)[C@@H](N)Cc3ccc(F)cc3)CC(=O)N21)C(=O)c1nccs1 (some centres undefined) | 44.2 | 47.7 | 557
0.5 | N=C(N)NCCCC(NC(=O)[C@@H]1CC[C@H]2CN(C(=O)CCc3ccccc3C(F)(F)F)CC(=O)N21)C(=O)c1nccs1 (some centres undefined) | 90 | > 60 | > 999
5 | N=C(N)NCCCC(NC(=O)[C@@H]1CC[C@H]2CN(C(=O)CCOc3ccccc3)CC(=O)N21)C(=O)c1nccs1 (some centres undefined) | 45.2 | 47.7 | 276
4.4 | N=C(N)NCCCC(NC(=O)[C@@H]1CC[C@H]2CN(C(=O)[C@@H](O)Cc3ccccc3)CC(=O)N21)C(=O)c1nccs1 (some centres undefined) | 463 | > 60 | 679
32 | N=C(N)NCCCC(NC(=O)[C@@H]1CC[C@H]2CN(C(=O)C3Cc4ccccc4CN3)CC(=O)N21)C(=O)c1nccs1 (some centres undefined) |  |  | 
50 | N=C(N)NCCCC(NC(=O)[C@@H]1CC[C@H]2CN(C(=O)OCc3ccccc3)CC(=O)N21)C(=O)c1nccs1 (some centres undefined) |  |  | 

Continued, molecule first:

Structure (SMILES) | Ki (Prothrombin) [nM] | APTT [1] [s] | MOT [2] [min] | TT [3] [s]
N=C(N)NCCCC(NC(=O)[C@@H]1CC[C@H]2CN(C(=O)c3ccccc3)CC(=O)N21)C(=O)c1nccs1 (some centres undefined) |  | 25.5 | 45.8 | 144
N=C(N)NCCCC(NC(=O)[C@@H]1CC[C@H]2CN(C(=O)[C@@H](N)Cc3ccc(O)cc3)CC(=O)N21)C(=O)c1nccs1 (stereo in doubt; 31) | 160 |  |  | 
N=C(N)NCCCC(NC(=O)[C@@H]1CC[C@H]2CN(C(=O)COc3ccccc3)CC(=O)N21)C(=O)c1nccs1 (some centres undefined) | 16 | 31.5 | 37.8 | 248
N=C(N)NCCCC(NC(=O)[C@@H]1CC[C@H]2CN(CCCc3ccccc3)CC(=O)N21)C(=O)c1nccs1 (some centres undefined) | 17 | 30.5 | 28.3 | 122
Cc1ccc(CCC(=O)N2CC(=O)N3[C@@H](CC[C@H]3C(=O)NC(CCCN=C(N)N)C(=O)c3nccs3)C2)cc1 (some centres undefined) | 0.5 | 88 | > 60 | > 999
N=C(N)NCCCC(NC(=O)[C@@H]1CC[C@H]2CN(C(=O)CCc3ccccc3)CC(=O)N21)C(=O)c1nccs1 (some centres undefined) |  | 44.3 | 42.2 | 381
N=C(N)NCCCC(NC(=O)[C@@H]1CC[C@H]2CN(C(=O)CCC3CCCCC3)CC(=O)N21)C(=O)c1nccs1 (some centres undefined) | 24 | 52.4 | 25.4 | 320
NC(N)=NCCCC(NC(=O)[C@@H]1CC[C@H]2CN(C(=O)[C@@H](N)Cc3c[nH]c4ccccc34)CC(=O)N21)C(=O)c1nccs1 (stereo in doubt; 33) | 75.3 |  |  | 
NC(N)=NCCCC(NC(=O)[C@@H]1CC[C@H]2CN(C(=O)[C@@H](N)Cc3ccc(O)cc3)CC(=O)N21)C(=O)c1nccs1 (stereo in doubt; 32) |  | 76 | 53 | 433
N=C(N)NCCCC(NC(=O)[C@@H]1CC[C@H]2CN(C(=O)CCc3ccccn3)CC(=O)N21)C(=O)c1nccs1 (some centres undefined) | 3 | 44.2 | 47.6 | 557
N=C(N)NCCCC(NC(=O)[C@@H]1CC[C@H]2CN(C(=O)[C@@H](O)c3ccccc3)CC(=O)N21)C(=O)c1nccs1 (stereo in doubt; 29) [listing 2 of 2 here] |  | 49.1 | > 60 | 476
N=C(N)NCCCC(NC(=O)[C@@H]1CC[C@H]2CN(C(=O)Cc3ccccc3)CC(=O)N21)C(=O)c1nccs1 (some centres undefined) | 2.5 | 79.2 | > 60 | 387
NC(N)=NCCCC(NC(=O)[C@@H]1CC[C@H]2CN(C(=O)[C@@H](N)Cc3c[nH]c4ccccc34)CC(=O)N21)C(=O)c1nccs1 (stereo in doubt; 34) [listing 1 of 2 here] |  | 188 | > 60 | 929
N=C(N)NCCCC(NC(=O)[C@@H]1CC[C@H]2CN(C(=O)CCCc3ccccc3)CC(=O)N21)C(=O)c1nccs1 (some centres undefined) | 1.2 | 120 | > 60 | 494
N=C(N)NCCCC(NC(=O)[C@@H]1CC[C@H]2CN(C(=O)CCc3ccc4ccccc4c3)CC(=O)N21)C(=O)c1nccs1 (some centres undefined) | 0.5 |  |  | 
N=C(N)NCCCC(NC(=O)[C@@H]1CC[C@H]2CN(C(=O)[C@@H](N)Cc3ccc(O)cc3)CC(=O)N21)C(=O)c1nccs1 (stereo in doubt; 32) | 18 |  |  | 
NC(N)=NCCCC(NC(=O)[C@@H]1CC[C@H]2CN(C(=O)[C@@H](N)Cc3c[nH]c4ccccc34)CC(=O)N21)C(=O)c1nccs1 (stereo in doubt; 34) [listing 2 of 2 here] | 0.96 |  |  | 

Source: ChEMBL document CHEMBL1130670, “Potent bicyclic lactam inhibitors of thrombin: Part I: P3 modifications” (Bioorg Med Chem Lett, 1998)
